Data published in patent US20020137929A1, “1 - (3-heterocyclylphenyl) isothiourea, -isourea, -guanidine and -amidine herbicidal agents” (Intellectual Property Department, BASF Aktiengesellschaft, priority 1998, published 2002).

Experiments:
[1] = tested on: ABUTH (Velvetleaf); test: Postemergence herbicidal evaluation; assay type: in vivo, Abutilon theophrasti; conditions: postemergence
Outline: (§1)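 Compound is applied as a foliar spray to seedlings about two weeks old, formulated in equal parts acetone and water with 0.5% TWEEN 20 and delivered at 40 psi to give about 0.0156–0.500 kg per hectare. Injury is rated visually 0–9 after four to five weeks.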

[2] = tested on: AMBEL (Ragweed, Common); test: Postemergence herbicidal evaluation; assay type: in vivo, Ambrosia artemisifolia; conditions: postemergence
Outline: as §1

[3] = tested on: CHEAL (Lambsquarters, Common); test: Postemergence herbicidal evaluation; assay type: in vivo, Chenopodium album; conditions: postemergence
Outline: as §1

[4] = tested on: ECHCG (Barnyardgrass); test: Postemergence herbicidal evaluation; assay type: in vivo, Echinochloa crus-galli; conditions: postemergence
Outline: as §1

[5] = tested on: GLXMAW (Soybean, Williams); test: Postemergence herbicidal evaluation; assay type: in vivo, Glycine max, (L.) Merr. cv Williams; conditions: postemergence
Outline: as §1

[6] = tested on: ORYSAT (Rice, Tebonnet); test: Postemergence herbicidal evaluation; assay type: in vivo, Oryza sativa, (L.) Tebonnet; conditions: postemergence
Outline: as §1

[7] = tested on: ZEAMX (Corn, Field); test: Postemergence herbicidal evaluation; assay type: in vivo, Zea mays; conditions: postemergence
Outline: as §1

[8] = tested on: AMBEL (Ragweed, Common); test: Preemergence herbicidal evaluation; assay type: in vivo, Ambrosia artemisifolia; conditions: preemergence, rated 4-5 weeks after treatment, 0-9 scale
Outline: (§2)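 Preemergence soil application of compound, sprayed in aqueous acetone at rates equivalent to about 0.0156 to 0.500 kg per hectare onto freshly sown cups. Plant response was judged by eye on a 0-9 scale four to five weeks later.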

[9] = tested on: CASOB (Sicklepod); test: Preemergence herbicidal evaluation; assay type: in vivo, Cassia obtusifolia; conditions: preemergence, rated 4-5 weeks after treatment, 0-9 scale
Outline: as §2

[10] = tested on: CHEAL (Lambsquarters, Common); test: Preemergence herbicidal evaluation; assay type: in vivo, Chenopodium album; conditions: preemergence, rated 4-5 weeks after treatment, 0-9 scale
Outline: as §2

[11] = tested on: GALAP (Galium); test: Preemergence herbicidal evaluation; assay type: in vivo, Galium aparine; conditions: preemergence, rated 4-5 weeks after treatment, 0-9 scale
Outline: as §2

[12] = tested on: CYPSE (Flatsedge); test: Preemergence weed control under flooded paddy conditions; assay type: in vivo, Cyperus serotinus; conditions: rated 3-4 weeks after treatment
Outline: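 Visual injury scored 0-9 against control three to four weeks post-treatment, greenhouse-grown. Application: acetone/water (50/50) solutions dosed directly into flood water (1.5-3 cm over silt loam, planted top 0.5 cm), roughly 0.0313 to 0.500 kg/ha active ingredient.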

[13] = tested on: CYPIR (Rice Flatsedge); test: Postemergence weed control under flooded paddy conditions; assay type: in vivo, Cyperus iria; conditions: postemergence weeds, rated 3 to 4 weeks after treatment
Outline: (§3)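 With weeds 3 to 5 cm tall and rice at the 1.5 to 2.5 leaf stage, containers were flooded and water held 1.5 to 3 cm above soil. Compounds in 50/50 v/v aqueous/acetone went into the flood water at about 0.0313 to 0.500 kg/ha a.i. Effects were visually rated 0–9 against controls after three to four weeks in the greenhouse.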

[14] = tested on: CYPSE (Flatsedge); test: as above; assay type: in vivo, Cyperus serotinus; conditions: postemergence weeds, rated 3 to 4 weeks after treatment
Outline: as §3

## CN1C(=O)C(CC(=O)NS(C)(=O)=O)SC1=Nc1cc(-n2c(=O)cc(C(F)(F)F)n(C)c2=O)c(F)cc1Cl (stereo not shown) [Compound 97, 2-{{2-Chloro-5-[3,6-dihydro-3-methyl-2,6-dioxo-4-(trifluoromethyl)-1(2H)-pyrimidinyl]-4-fluorophenyl}imino}-3-methyl-N-(methylsulfonyl)-4-oxo-5-thiazolidineacetamide]
[1]; rate 0.0156 kg/ha
  ABUTH herbicidal rating: 4.0
[1]; rate 0.0313 kg/ha
  ABUTH herbicidal rating: 4.0
[1]; rate 0.0625 kg/ha
  ABUTH herbicidal rating: 7.0
[1]; rate 0.1250 kg/ha
  ABUTH herbicidal rating: 9.0
[2]; rate 0.0156 kg/ha
  AMBEL herbicidal rating: 0.0
[2]; rate 0.0313 kg/ha
  AMBEL herbicidal rating: 1.0
[2]; rate 0.0625 kg/ha
  AMBEL herbicidal rating: 4.0
[2]; rate 0.1250 kg/ha
  AMBEL herbicidal rating: 7.0
[3]; rate 0.0156 kg/ha
  CHEAL herbicidal rating: 0.0
[3]; rate 0.0313 kg/ha
  CHEAL herbicidal rating: 1.0
[3]; rate 0.0625 kg/ha
  CHEAL herbicidal rating: 4.0
[3]; rate 0.1250 kg/ha
  CHEAL herbicidal rating: 7.0
[4]; rate 0.0156 kg/ha
  ECHCG herbicidal rating: 1.0
[4]; rate 0.0313 kg/ha
  ECHCG herbicidal rating: 1.0
[4]; rate 0.0625 kg/ha
  ECHCG herbicidal rating: 3.0
[4]; rate 0.1250 kg/ha
  ECHCG herbicidal rating: 6.0
[5]; rate 0.0156 kg/ha
  GLXMAW herbicidal rating: 4.5
[5]; rate 0.0313 kg/ha
  GLXMAW herbicidal rating: 4.0
[5]; rate 0.0625 kg/ha
  GLXMAW herbicidal rating: 5.5
[5]; rate 0.1250 kg/ha
  GLXMAW herbicidal rating: 6.5
[6]; rate 0.0156 kg/ha
  ORYSAT herbicidal rating: 0.5
[6]; rate 0.0313 kg/ha
  ORYSAT herbicidal rating: 0.5
[6]; rate 0.0625 kg/ha
  ORYSAT herbicidal rating: 2.5
[6]; rate 0.1250 kg/ha
  ORYSAT herbicidal rating: 3.0
[7]; rate 0.0156 kg/ha
  ZEAMX herbicidal rating: 3.5
[7]; rate 0.0313 kg/ha
  ZEAMX herbicidal rating: 4.0
[7]; rate 0.0625 kg/ha
  ZEAMX herbicidal rating: 4.0
[7]; rate 0.1250 kg/ha
  ZEAMX herbicidal rating: 5.0
[8]; 0.1250 kg/ha
  AMBEL rating: 0.0
[8]; 0.2500 kg/ha
  AMBEL rating: 4.0
[8]; 0.5000 kg/ha
  AMBEL rating: 4.0
[9]; 0.1250 kg/ha
  CASOB rating: 0.0
[9]; 0.2500 kg/ha
  CASOB rating: 1.0
[9]; 0.5000 kg/ha
  CASOB rating: 3.0
[10]; 0.1250 kg/ha
  CHEAL rating: 7.0
[10]; 0.2500 kg/ha
  CHEAL rating: 9.0
[10]; 0.5000 kg/ha
  CHEAL rating: 9.0
[11]; 0.1250 kg/ha
  GALAP rating: 1.0
[11]; 0.2500 kg/ha
  GALAP rating: 0.0
[11]; 0.5000 kg/ha
  GALAP rating: 5.0
[12]; 0.0313 kg/ha
  CYPSE herbicidal effect rating: 0.0
[12]; 0.0625 kg/ha
  CYPSE herbicidal effect rating: 0.0
[12]; 0.1250 kg/ha
  CYPSE herbicidal effect rating: 0.0
[12]; 0.2500 kg/ha
  CYPSE herbicidal effect rating: 3.0
[13]; Rate 0.0313 kg/ha
  Herbicidal rating CYPIR: 0.0
[13]; Rate 0.0625 kg/ha
  Herbicidal rating CYPIR: 0.0
[13]; Rate 0.1250 kg/ha
  Herbicidal rating CYPIR: 3.0
[13]; Rate 0.2500 kg/ha
  Herbicidal rating CYPIR: 4.0
[14]; Rate 0.0313 kg/ha
  Herbicidal rating CYPSE: 0.0
[14]; Rate 0.0625 kg/ha
  Herbicidal rating CYPSE: 0.0
[14]; Rate 0.1250 kg/ha
  Herbicidal rating CYPSE: 0.0
[14]; Rate 0.2500 kg/ha
  Herbicidal rating CYPSE: 3.0
